Laboratory results: ChEMBL document CHEMBL5653615 (J Biol Chem, 2013)

Tests used:
[1] = target: Cyclin-dependent kinase 7/ cyclin H (Homo sapiens) (UniProt P51946+P50613); assay: Inhibition of human CDK7/cyclin H at 500 nM by HotSpot assay relative to control; assay type: protein-complex assay
[2] = target: Casein kinase I isoform delta (Homo sapiens) (UniProt P48730); assay: Inhibition of human CK1d at 500 nM by HotSpot assay relative to control
[3] = target: Casein kinase I isoform epsilon (Homo sapiens) (UniProt P49674); assay: Inhibition of human CK1epsilon at 500 nM by HotSpot assay relative to control
Casein kinase I isoform epsilon (Homo sapiens), sequence (P49674 whole entry, looked up, canonical isoform): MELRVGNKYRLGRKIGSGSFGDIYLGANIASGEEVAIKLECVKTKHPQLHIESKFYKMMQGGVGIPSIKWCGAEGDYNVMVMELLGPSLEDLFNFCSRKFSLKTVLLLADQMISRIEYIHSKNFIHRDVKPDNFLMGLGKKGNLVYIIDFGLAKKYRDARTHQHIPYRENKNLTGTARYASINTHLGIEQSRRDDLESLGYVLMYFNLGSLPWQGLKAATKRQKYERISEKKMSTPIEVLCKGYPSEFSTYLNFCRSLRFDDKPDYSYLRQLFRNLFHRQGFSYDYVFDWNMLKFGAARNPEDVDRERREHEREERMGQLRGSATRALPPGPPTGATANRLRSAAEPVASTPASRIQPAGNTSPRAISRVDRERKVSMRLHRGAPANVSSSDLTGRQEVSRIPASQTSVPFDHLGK

[4] = target: Death-associated protein kinase 1 (Homo sapiens) (UniProt P53355); assay: Inhibition of human DAPK1 at 500 nM by HotSpot assay relative to control
[5] = target: T1, Dual specificity tyrosine-phosphorylation-regulated kinase 3 (Homo sapiens) (UniProt O43781); assay: Inhibition of human DYRK3 at 500 nM by HotSpot assay relative to control
T1 sequence (whole entry): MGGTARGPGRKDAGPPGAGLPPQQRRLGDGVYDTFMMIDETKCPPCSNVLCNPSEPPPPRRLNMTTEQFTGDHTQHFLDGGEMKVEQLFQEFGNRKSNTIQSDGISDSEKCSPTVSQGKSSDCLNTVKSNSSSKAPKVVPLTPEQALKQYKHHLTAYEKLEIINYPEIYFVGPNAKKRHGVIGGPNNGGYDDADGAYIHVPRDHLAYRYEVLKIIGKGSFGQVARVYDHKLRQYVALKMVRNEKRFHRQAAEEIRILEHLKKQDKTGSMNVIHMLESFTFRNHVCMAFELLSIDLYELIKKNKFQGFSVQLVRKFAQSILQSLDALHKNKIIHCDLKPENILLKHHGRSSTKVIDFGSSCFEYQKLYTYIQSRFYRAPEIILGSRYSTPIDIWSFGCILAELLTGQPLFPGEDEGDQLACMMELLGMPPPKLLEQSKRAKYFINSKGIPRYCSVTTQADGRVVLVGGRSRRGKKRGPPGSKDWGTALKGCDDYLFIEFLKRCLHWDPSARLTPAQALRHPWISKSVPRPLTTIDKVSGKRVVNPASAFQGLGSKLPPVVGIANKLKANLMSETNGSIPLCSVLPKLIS

[6] = target: Receptor-type tyrosine-protein kinase FLT3 (Homo sapiens) (UniProt P36888); assay: Inhibition of human FLT3 at 500 nM by HotSpot assay relative to control
Receptor-type tyrosine-protein kinase FLT3 (Homo sapiens), sequence (P36888 whole entry): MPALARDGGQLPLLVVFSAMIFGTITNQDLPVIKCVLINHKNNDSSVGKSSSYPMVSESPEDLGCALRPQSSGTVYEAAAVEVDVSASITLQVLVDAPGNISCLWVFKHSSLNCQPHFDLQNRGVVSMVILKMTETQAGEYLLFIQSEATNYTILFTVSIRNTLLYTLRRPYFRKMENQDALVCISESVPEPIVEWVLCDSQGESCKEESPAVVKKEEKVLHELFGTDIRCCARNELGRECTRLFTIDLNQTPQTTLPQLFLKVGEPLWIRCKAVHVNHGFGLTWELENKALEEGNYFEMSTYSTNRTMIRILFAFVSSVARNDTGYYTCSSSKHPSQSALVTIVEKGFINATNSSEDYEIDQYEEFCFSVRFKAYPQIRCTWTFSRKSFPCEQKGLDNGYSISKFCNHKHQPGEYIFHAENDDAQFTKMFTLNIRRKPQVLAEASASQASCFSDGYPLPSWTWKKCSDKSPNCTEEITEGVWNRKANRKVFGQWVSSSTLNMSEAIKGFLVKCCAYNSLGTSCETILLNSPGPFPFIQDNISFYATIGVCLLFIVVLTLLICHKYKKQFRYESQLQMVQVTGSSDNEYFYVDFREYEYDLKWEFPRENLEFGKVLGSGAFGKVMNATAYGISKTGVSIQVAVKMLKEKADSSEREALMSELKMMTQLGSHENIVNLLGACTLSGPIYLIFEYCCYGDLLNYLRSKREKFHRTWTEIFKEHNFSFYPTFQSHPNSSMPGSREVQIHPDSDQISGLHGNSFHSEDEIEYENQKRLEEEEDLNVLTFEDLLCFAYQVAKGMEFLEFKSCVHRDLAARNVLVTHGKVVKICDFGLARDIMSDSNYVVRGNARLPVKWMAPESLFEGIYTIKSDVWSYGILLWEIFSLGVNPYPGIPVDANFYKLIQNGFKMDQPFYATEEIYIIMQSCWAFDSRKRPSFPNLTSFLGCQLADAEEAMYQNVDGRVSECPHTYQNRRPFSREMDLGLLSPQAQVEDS

[7] = target: T2, Beta-adrenergic receptor kinase 1 (Homo sapiens) (UniProt P25098); assay: Inhibition of human GRK2 at 500 nM by HotSpot assay relative to control
T2 sequence (whole entry): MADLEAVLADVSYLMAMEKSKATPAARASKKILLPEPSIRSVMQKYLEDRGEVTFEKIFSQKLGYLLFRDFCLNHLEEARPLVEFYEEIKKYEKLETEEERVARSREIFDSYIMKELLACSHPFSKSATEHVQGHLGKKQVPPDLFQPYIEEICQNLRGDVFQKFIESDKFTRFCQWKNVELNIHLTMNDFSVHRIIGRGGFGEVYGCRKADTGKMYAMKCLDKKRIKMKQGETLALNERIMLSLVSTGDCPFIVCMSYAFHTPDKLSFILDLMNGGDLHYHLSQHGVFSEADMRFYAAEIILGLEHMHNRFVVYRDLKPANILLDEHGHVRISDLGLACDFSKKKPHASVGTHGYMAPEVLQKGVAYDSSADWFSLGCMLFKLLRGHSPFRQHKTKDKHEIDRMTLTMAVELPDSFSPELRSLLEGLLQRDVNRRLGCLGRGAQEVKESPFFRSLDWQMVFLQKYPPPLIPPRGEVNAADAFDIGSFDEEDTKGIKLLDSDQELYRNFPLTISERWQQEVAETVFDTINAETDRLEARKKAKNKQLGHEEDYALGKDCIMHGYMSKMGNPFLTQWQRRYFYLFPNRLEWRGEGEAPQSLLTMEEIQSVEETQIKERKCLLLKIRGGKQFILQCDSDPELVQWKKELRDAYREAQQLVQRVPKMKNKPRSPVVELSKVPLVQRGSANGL

[8] = target: Tyrosine-protein kinase Lyn (Homo sapiens) (UniProt P07948); assay: Inhibition of human LYN B at 500 nM by HotSpot assay relative to control
Tyrosine-protein kinase Lyn (Homo sapiens), sequence (P07948 2-512 limits assumed): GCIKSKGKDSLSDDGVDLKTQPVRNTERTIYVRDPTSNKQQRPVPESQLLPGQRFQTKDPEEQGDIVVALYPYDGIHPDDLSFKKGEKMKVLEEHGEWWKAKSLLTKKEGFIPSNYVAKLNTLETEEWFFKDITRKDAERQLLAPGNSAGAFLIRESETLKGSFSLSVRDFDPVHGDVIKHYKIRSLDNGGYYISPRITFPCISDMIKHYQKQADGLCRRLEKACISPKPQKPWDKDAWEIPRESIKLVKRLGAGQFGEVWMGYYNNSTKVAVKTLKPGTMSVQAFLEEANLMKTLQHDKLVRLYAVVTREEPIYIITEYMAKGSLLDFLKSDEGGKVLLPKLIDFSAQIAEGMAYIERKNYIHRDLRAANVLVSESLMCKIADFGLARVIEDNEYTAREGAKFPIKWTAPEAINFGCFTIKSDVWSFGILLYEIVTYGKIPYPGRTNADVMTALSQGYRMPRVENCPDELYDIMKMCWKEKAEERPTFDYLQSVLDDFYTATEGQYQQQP

[9] = target: T3, Serine/threonine-protein kinase D3 (Homo sapiens) (UniProt O94806); assay: Inhibition of human PRKD3 at 500 nM by HotSpot assay relative to control
T3 sequence (whole entry): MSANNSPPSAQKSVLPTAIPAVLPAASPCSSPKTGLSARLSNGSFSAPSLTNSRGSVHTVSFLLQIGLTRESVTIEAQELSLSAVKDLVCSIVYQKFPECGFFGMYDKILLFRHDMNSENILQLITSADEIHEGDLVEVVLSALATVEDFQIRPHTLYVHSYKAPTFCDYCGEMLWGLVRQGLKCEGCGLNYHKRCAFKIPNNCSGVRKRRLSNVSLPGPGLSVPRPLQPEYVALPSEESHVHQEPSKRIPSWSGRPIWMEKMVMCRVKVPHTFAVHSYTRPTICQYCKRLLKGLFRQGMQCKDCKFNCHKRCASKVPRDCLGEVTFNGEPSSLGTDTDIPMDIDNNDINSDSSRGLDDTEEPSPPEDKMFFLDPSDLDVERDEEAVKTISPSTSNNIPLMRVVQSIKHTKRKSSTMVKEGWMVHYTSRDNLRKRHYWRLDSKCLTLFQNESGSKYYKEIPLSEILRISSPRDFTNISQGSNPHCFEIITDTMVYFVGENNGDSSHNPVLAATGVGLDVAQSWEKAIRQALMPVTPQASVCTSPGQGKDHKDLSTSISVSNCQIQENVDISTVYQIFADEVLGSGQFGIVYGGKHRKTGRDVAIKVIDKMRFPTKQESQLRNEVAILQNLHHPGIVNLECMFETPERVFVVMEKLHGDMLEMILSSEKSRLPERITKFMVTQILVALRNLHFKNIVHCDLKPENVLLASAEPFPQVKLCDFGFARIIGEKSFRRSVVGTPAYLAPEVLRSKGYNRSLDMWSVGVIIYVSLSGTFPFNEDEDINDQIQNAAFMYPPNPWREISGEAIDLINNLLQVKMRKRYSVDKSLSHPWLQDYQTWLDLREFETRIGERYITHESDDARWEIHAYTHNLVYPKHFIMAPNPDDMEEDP

[10] = target: Protein kinase C theta type (Homo sapiens) (UniProt Q04759); assay: Inhibition of human PKCtheta at 500 nM by HotSpot assay relative to control
Protein kinase C theta type (Homo sapiens), sequence (Q04759 whole entry, looked up): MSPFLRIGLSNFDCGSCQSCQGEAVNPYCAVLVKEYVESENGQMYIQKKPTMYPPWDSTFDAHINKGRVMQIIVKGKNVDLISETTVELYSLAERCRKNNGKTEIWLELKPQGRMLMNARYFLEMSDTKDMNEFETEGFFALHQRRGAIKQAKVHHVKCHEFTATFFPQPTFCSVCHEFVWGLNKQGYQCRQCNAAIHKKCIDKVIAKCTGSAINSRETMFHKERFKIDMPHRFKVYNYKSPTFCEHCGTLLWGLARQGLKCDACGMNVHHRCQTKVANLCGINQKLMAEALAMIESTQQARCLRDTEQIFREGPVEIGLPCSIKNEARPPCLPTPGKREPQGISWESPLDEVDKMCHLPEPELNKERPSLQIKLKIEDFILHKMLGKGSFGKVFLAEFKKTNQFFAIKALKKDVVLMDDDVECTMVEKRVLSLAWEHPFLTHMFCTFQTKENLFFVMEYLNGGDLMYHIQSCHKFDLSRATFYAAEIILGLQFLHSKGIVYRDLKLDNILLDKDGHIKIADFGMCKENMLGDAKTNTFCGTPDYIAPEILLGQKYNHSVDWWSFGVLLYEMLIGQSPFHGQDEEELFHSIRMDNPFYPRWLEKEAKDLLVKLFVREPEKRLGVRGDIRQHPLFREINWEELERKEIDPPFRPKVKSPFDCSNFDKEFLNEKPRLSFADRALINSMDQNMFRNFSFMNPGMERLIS

[11] = target: Serine/threonine-protein kinase PLK2 (Homo sapiens) (UniProt Q9NYY3); assay: Inhibition of human PLK2 at 500 nM by HotSpot assay relative to control
Serine/threonine-protein kinase PLK2 (Homo sapiens), sequence (Q9NYY3 whole entry, looked up): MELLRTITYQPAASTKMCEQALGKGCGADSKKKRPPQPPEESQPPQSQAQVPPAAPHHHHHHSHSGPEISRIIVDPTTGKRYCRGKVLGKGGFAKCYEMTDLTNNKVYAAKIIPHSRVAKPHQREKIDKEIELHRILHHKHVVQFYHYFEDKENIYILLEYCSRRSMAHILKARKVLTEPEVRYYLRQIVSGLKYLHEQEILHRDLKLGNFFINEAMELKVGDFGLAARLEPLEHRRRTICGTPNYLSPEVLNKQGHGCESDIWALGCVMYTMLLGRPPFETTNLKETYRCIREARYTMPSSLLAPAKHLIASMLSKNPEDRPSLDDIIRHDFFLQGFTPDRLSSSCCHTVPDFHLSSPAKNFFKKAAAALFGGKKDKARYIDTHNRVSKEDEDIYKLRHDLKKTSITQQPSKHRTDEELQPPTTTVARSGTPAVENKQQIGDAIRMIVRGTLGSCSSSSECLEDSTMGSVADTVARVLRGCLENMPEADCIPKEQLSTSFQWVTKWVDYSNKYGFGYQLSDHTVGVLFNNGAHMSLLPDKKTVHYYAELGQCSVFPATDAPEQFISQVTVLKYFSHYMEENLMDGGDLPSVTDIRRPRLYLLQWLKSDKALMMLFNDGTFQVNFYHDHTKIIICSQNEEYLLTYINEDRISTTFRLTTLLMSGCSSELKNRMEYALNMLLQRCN

[12] = target: Protein-tyrosine kinase 2-beta (Homo sapiens) (UniProt Q14289); assay: Inhibition of human PYK2 at 500 nM by HotSpot assay relative to control
Protein-tyrosine kinase 2-beta (Homo sapiens), sequence (Q14289 whole entry, looked up): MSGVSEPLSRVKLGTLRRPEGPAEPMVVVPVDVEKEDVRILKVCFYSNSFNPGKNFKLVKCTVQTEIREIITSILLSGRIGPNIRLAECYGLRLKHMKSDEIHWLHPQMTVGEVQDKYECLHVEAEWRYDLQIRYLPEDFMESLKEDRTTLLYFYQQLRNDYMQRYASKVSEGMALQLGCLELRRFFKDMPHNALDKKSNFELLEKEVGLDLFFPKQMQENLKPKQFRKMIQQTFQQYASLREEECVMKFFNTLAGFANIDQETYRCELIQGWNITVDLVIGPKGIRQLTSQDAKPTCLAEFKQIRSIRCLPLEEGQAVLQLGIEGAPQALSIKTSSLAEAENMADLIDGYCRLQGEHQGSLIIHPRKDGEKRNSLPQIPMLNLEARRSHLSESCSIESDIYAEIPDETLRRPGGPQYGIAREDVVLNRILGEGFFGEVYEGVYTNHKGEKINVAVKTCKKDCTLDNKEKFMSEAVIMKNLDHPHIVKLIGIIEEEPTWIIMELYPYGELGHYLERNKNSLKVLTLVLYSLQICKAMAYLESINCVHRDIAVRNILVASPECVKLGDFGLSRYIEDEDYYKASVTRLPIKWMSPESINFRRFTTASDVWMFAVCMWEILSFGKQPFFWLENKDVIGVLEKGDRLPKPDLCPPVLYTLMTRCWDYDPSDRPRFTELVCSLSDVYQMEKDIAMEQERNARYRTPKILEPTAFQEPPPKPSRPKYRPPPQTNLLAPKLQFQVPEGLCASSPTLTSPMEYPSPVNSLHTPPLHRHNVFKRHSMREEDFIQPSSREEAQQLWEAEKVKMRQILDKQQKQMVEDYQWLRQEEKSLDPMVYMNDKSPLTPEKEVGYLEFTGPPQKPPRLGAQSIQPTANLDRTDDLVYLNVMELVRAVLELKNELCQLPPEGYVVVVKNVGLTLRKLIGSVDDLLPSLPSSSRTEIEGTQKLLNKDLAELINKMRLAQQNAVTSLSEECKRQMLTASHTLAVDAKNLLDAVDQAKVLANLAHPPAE

[13] = organism: Homo sapiens; assay: Inhibition of human TAO1 at 500 nM by HotSpot assay relative to control

Casein kinase I isoform delta (Homo sapiens), sequence (P48730 whole entry, looked up, canonical isoform): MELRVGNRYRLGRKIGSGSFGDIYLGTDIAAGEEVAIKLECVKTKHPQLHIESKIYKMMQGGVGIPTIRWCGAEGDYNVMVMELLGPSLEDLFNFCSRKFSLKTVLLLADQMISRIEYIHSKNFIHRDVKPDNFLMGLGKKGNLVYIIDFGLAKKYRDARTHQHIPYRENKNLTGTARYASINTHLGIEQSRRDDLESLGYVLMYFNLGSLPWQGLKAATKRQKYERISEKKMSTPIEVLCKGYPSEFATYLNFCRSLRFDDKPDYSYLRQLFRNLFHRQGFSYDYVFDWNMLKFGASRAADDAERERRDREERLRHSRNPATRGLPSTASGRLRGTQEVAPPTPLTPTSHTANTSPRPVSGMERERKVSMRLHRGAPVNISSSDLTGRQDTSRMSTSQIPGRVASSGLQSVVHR

Structure (SMILES) | inhibition [1] [%] | inhibition [2] [%] | inhibition [3] [%] | inhibition [4] [%] | inhibition [5] [%] | inhibition [6] [%] | inhibition [7] [%] | inhibition [8] [%] | inhibition [9] [%] | inhibition [10] [%] | inhibition [11] [%] | inhibition [12] [%] | inhibition [13] [%]
Nc1n[nH]c2nnc(-c3c(-c4ccccc4)nn4ccccc34)cc12 | 0.97 | 36.8 | 19.1 | 4.15 | 0.17 | 36.5 | 4.99 | 2.89 | 41.1 | 20.1 | -6.73 | 4.57 | -1.14
Oc1n[nH]c2nnc(-c3c(-c4ccccc4)nn4ccccc34)cc12 | 3.04 | 4.93 | 0.54 | 6.45 | 1.62 | 4.49 | 5.01 | 2.89 | 1.12 | 8.59 | -3.28 | 2.81 | 1.69
